Patent US5853748A, “Pharmaceutical compositions” (priority 1994, dated 1998)
Where two headings read alike, the source gives them in different places.

How the values were obtained:
[1] = cited from earlier work
[2] = sodium cholate (Kojima et al); cited from earlier work
Caco-2 cells [3] = experiment: in vitro
Protocol: (§1) A neutral red stock solution was prepared at concentration of 0.5 mg/ml in DMEM (Dulbecco's Modified Eagle Medium) (pH 4.5) which was then diluted 1:10 with TCM (Tissue Culture Medium) or Hanks Balanced Salt Solution (HBSS) before use.
(§2) Test solutions were prepared containing various concentrations of a bile salt in either HBSS or in one of the 0.1M buffer solution. The following bile salts were tested:
(§3) Test plates were set up by aliquotting 200 μl of a Caco-2 cell suspension containing 1×10^5 cells/ml into each well of a 96-well microtitre plate. The outermost wells were filled with 200 μl saline alone, to counteract the effects of evaporation. The cells were incubated in high glucose Dulbecco's modified eagles medium (DMEM) tissue culture medium (TCM) at […], 5% CO2 in air, for 8 days, with feeding where necessary. The cells were then used for performance of either an initial insult or a recovery study.
(§4) B. Recovery from Toxic Insult
(§5) Neutral red stain is actively taken up by viable cells and non-viable cells will not stain. Cells with increased cell membrane permeability will have a reduced stain content. […] A 2-hour exposure period is used together with a 3-hour recovery period in optimal growth material during which stain is taken up. The following protocol was followed:
(§6) TCM was removed from each well and replaced with 150 μl of the appropriate buffer.
(§7) Buffer was removed from wells in column 2 and replaced with 150 μl of test solutions at the highest concentration.
(§8) 150 μof test solutions was added to each of wells in column 3, mixed gently by aspirating repeatedly, and 150 μl transferred to wells in column 4. This process was repeated down the plate to obtain two-fold serial dilutions of test material along each row. One row on each plate was allocated to HBSS as a control, and one row for a buffer control if necessary. The cells were incubated for 2 hours at 37° C. in CO2.
(§9) The supernatant liquid was then removed from cell monolayers in each well and replaced with 200 μl of stain.
(§10) The plates were incubated for 3 hours at 37° C., 5% CO2. […]

Caco-2 cells [4] = experiment: in vitro; remark: listed apart in the source
Protocol: as §2
(§11) A MTT stock solution was prepared at a concentration of 5 mg/ml in distilled water, which was then diluted 1:10 with TCM before use.
(§12) Test plates were set up by aliquotting 200 μl of a Caco-2 cell suspension containing 1×10^5 cells/ml into wells of a 96-well microtitre plate. The outermost wells on each plate were left blank, and filled with 200 μl saline, to counteract the effects of evaporation. The cells were is incubated in high glucose DMEM tissue culture medium (TCM) at 37° C., 5% CO2 in air, for 8 days, with feeding when necessary.
(§13) MTT is a tetrazolium salt which is converted by mitochondrial dehydrogenases in viable cells to form an insoluble purple crystal. Dead cells would not effect this conversion. Crystal formation can be quantified colorimetrically and used to asses mitochondrial activity and therefore cell viability. The preparation of MTT stock solution, test solutions and buffer solution is described above.
(§14) In this procedure, cells are first incubated with test materials and then incubated with MTT and measurements are made to determine the extent to which incubation with test materials has altered the mitochondrial activity of the cells. A two hour exposure period is used together with a three hour recovery period during which time staining is conducted.
(§15) TCM was removed from each well and replaced with 150 Al of the appropriate buffer.
as §7
(§16) 150 μl of test solutions was added to each of wells in column 3, mixed gently by aspirating repeatedly, and 150 μl transferred to wells in column 4. This process was repeated down the plate to obtain two-fold serial dilutions of test material along each row. […]
(§17) Absorbances were measured on a plate reader as the difference between 550 and 650 nm, and readings compared with buffer controls to assess change in mitochondrial activity. […]

[5] = for pH: water
Excerpt: (§18) The amount of agent necessary to adjust the pH to within the range contemplated is difficult to determine directly because the intestinal pH can vary between 5 to 7, and its aqueous content can vary, as can its intrinsic buffering capacity, which acts to maintain a low pH. Consequently considerations aimed at determining the appropriate quantity of agent controlling pH need to take into account a "worst-case" scenario. An indication may be obtained by observing the pH achieved upon adding a potential pH-adjusting agent to a 50 mM solution of MES (morpholino ethane sulphonic acid) adjusted to pH 6.0.
A 0.1M solution of sodium bicarbonate in distilled water was prepared (buffer solution). Similar 0.1M solutions of sodium acetate, sodium borate and sodium carbonate in distilled water were also prepared. These are also referred to in the examples as buffers.

[6] = for pH: MES
Excerpt: as §18

in vitro [7] = conditions: human, hbss
Protocol: as §1, §2, §3, §4, §5, §6, §7, §8, §9, §10

in vitro [8] = conditions: human, hbss; remark: listed apart in the source
Protocol: as §2, §11, §12, §13, §14, §15, §7, §16, §17

in vitro [9] = conditions: human, hbss; remark: listed apart in the source
Protocol: as §1, §2
as §3, with “study. […]” for “study.”
Neutral red stain is actively taken up by viable cells. Cells with more permeable membranes will lose stain into the bathing medium and thus cell membrane permeability can be directly assessed after exposure to the test material by quantifying the stain remaining in the cell. […]
In order to quantify the amount of stain remaining in the cells, absorbances were measured on a plate reader at 550 nm, and readings compared with buffer controls to assess leakage of the stain from the cells. […]

[10] = In vivo efficacy study, salmon calcitonin, intrajejunal, pigs (plasma calcium); design: species or system Pigs (large white×large white/landrace); conditions: […] iu sCT intrajejunal in 2 ml, with 25 or 50 mg sodium chenodeoxy cholate, pH 7.5 or 6.5
Protocol: Dosing of salmon calcitonin (sCT) was administered by instillation via the indwelling cannula into the jejunum, followed by flushing with warm sterile water. 8 ml blood samples were removed at various times before and after dosing, and divided into two portions. One portion was allowed to clot at room temperature, and the serum removed and stored at -20° C. until ready for use. The other portion was transferred to heparinised tubes to which 4000 kiu aprotinin was added, and the plasma decanted after centrifugation and stored at -20° C. Serum calcium levels were measured colorimetrically after complexation with the calcium-sensitive chelating agent arsenazo III.
Nine animals were used in the study, and formulations were administered on three separate days, each separated by at least one day, on a random three-way crossover basis, so that all pigs received all three treatments.

[11] = at the pH values contemplated (7.5 to 9); cited from earlier work

In the case of `C[C@H](CCC(=O)NCC(=O)O)[C@H]1CC[C@H]2[C@@H]3[C@H](O)C[C@@H]4C[C@H](O)CC[C@]4(C)[C@H]3C[C@H](O)[C@]12C` [Glycocholate, sodium glycocholate], the “bioavailability of various substances” value ([1]; in combination with taurocholate or glycocholate (Kakemi et al)) is given as “could be increased”.
In the case of `C[C@H](CCC(=O)O)[C@H]1CC[C@H]2[C@@H]3[C@H](O)C[C@@H]4C[C@H](O)CC[C@]4(C)[C@H]3C[C@H](O)[C@]12C` [Cholate, sodium cholate], the “absorption of various substances” value ([1]; sodium cholate (Kojima et al)) is given as “capable of increasing the absorption of various substances” and the “release of cell membrane components” value [2] is given as “accelerated”.
In the case of somatostatin, the bioavailability of somatostatin ([1]; with a cholanic acid derivative such as chenodeoxycholic acid or ursodeoxycholic acid (GB-A-2244918)) is given as “can be improved”.
With `C[C@H](CCC(=O)O)[C@H]1CC[C@H]2[C@@H]3[C@H](O)C[C@@H]4C[C@H](O)CC[C@]4(C)[C@H]3CC[C@]12C` [Chenodeoxycholate, sodium chenodeoxycholate] the “percentage release of stain (FIG. 4)” value (Caco-2 cells [3]) was “much less stain is released from cells which have been incubated at pH above 7.5” and the “percentage reduction in mitochondrial activity (FIG. 5)” value (Caco-2 cells [4]) was “a marked reduction in toxicity is achieved under conditions of elevated pH”.
In the case of `O=C(O)O` [Bicarbonate, sodium bicarbonate], the pH ([5]; 0.002 M) is reported as 8.86, the pH ([5]; 0.004 M) is reported as 8.67 and the pH ([5]; 0.008 M) is reported as 8.63. For the same compound, the pH ([5]; 0.016 M) was 8.57, the pH ([5]; 0.031 M) was 8.55 and the pH ([5]; 0.062 M) was 8.49. For the same compound, the “pH of 0.1M solution” value ([5]; 0.1M, confirmed at the end of each of the experiments) was ~8.0, the pH ([5]; 0.500 M) was 8.16 and the pH ([5]; 1.000 M) was 8.02. The “pH of saturated solution” value ([5]; saturated (<2M) in water) was 8.01, the pH ([6]; 0.002 M) was 6.42 and the pH ([6]; 0.004 M) was 6.58. For the same compound, the pH ([6]; 0.008 M) was 6.86, the pH ([6]; 0.016 M) was 7.14 and the pH ([6]; 0.031 M) was 7.40. The pH ([6]; 0.062 M) was 7.68, the pH ([6]; 0.500 M) was 8.05 and the pH ([6]; 1.000 M) was 7.96. For the same compound, the “pH in the gut” value ([6]; about 0.045M (about 40 mg sodium bicarbonate in 10 ml)) was “about 7.5”.
`C[C@H](CCC(=O)NCC(=O)O)[C@H]1CC[C@H]2[C@@H]3CC[C@@H]4C[C@H](O)CC[C@]4(C)[C@H]3C[C@H](O)[C@]12C` [Glycodeoxycholate, sodium glycodeoxycholate] showed an MNTC at 2 h (in vitro [7]) of 313 µg/mL, an MNTC at 2 h (in vitro [8]) of 313 µg/mL and an MNTC at 2 h (in vitro [9]) of 313 µg/mL.
In the case of salmon calcitonin [sCT], the “efficacy of bile salts in enhancing uptake of calcitonin (plasma calcium concentration with time, FIG. 6)” value [10] is reported as “dependent on the concentration of bile salt present, and the pH at which it is administered”.
Compound `C[C@H](CCC(=O)NCCS(=O)(=O)O)[C@H]1CC[C@H]2[C@@H]3CC[C@@H]4C[C@H](O)CC[C@]4(C)[C@H]3C[C@H](O)[C@]12C` [Taurodeoxycholate, sodium taurodeoxycholate] has an MNTC at 2 h (in vitro [7]) of 313 µg/mL, an MNTC at 2 h (in vitro [8]) of 313 µg/mL and an MNTC at 2 h (in vitro [9]) of 313 µg/mL.
For insulin, the solubility [11] is listed as “poorly soluble”.
